Results on 20 compounds are retold here after ChEMBL document CHEMBL5352505, “Targeting MET: Discovery of Small Molecule Inhibitors as Non-Small Cell Lung Cancer Therapy” (J Med Chem, 2023).

What is called IC50 is the concentration that inhibits the measured activity by half. For orientation: half-life means how long it takes for the measured level to halve.

Series [1] has as its system MKN-45. Briefly: Antiproliferative activity against human MKN-45 cells assessed as inhibition of cell growth measured after 72 hrs by Cell Titer blue assay. The series is classed as functional, cell-based. Conditions: MKN-45, 72 h.
Series [2] deals with T1, Hepatocyte growth factor receptor (Homo sapiens, UniProt P08581). Briefly: Inhibition of human GST tagged c-Met CD expressed in Sf9 cells using poly(Glu:Tyr) as substrate incubated for 5 mins in presence of ATP by horseradish peroxidase based ELISA method. Background: In an ELISA, binding on a coated surface is turned into a signal by an enzyme label.
The test system of a further series is CT26. The series is described as follows: Antiproliferative activity against CT26 cells assessed as inhibition of cell growth. The series is classed as functional, cell-based. To be noted: Mus musculus.
Series [3] addresses T1, Hepatocyte growth factor receptor. Briefly: Inhibition of MET (unknown origin).
Series [4] concerns MKN-45. The series is described as follows: cells. To be noted: Homo sapiens.
The subject of series [5] is EBC-1. The series is described as follows: cells. To be noted: Homo sapiens.
The test system of series [6] is EBC-1. The series is described as follows: Antiproliferative activity against human EBC-1 cells assessed as inhibition of cell growth measured after 72 hrs by CellTiter-Glo assay. The series is classed as functional, cell-based. Conditions: EBC-1, 72 h. A general note: ATP-based viability assays read luminescence as a measure of living cells.
Series [7] relates to MKN-45. Briefly: Antiproliferative activity against human MKN-45 cells assessed as inhibition of cell growth measured after 72 hrs by CellTiter-Glo assay. Format: functional, cell-based. To be noted: MKN-45, 72 h.
The test system of another series is MHCC97H. The series is described as follows: cells. To be noted: Homo sapiens, 72 h.
Series [8] is described as follows: Oral bioavailability in mouse. Format: ADME, organism-based. Conditions: in vivo.
Series [9] is described as follows: Metabolic stability in mouse liver microsomes assessed as half life. The series is classed as ADME, Microsome. A general note: Microsomes from liver hold many membrane-bound enzymes, among them those of drug oxidation.
Series [10] can be described thus: Metabolic stability in human liver microsomes assessed as half life. Format: ADME, Microsome.
A short description of series [11]: Metabolic stability in rat liver microsomes assessed as half life. The series is classed as ADME, Microsome.
Series [12] concerns Hs746T. The series is described as follows: Antiproliferative activity against human Hs746T cells assessed as inhibition of cell growth measured after 4 days by CellTiter-Glo assay. Format: functional, cell-based. Conditions: 96 h.
Series [13] concerns EBC-1. The series is described as follows: Antiproliferative activity against human EBC-1 cells assessed as inhibition of cell growth measured after 3 days by CellTiter-Glo assay. Format: functional, cell-based. To be noted: EBC-1, 72 h.
For another series, the system named is SNU-5. Briefly: cells. Conditions: Homo sapiens.
For series [14], the system named is Hs746T. The series is described as follows: cells. Conditions: Homo sapiens.
The next series has as its system GTL 16 cell line. Briefly: Antiproliferative activity against human GTL 16 cell line assessed as inhibition of cell growth. Format: functional, cell-based.
Series [15] deals with A549. Briefly: Antiproliferative activity against human A549 cells assessed as inhibition of cell growth. The series is classed as functional, cell-based.
The test system of a further series is NCI-H1703. The series is described as follows: Antiproliferative activity against human NCI-H1703 cells assessed as inhibition of cell growth. The series is classed as functional, cell-based.
The next series has as its system NCI-H1993. Briefly: Antiproliferative activity against human NCI-H1993 cells assessed as inhibition of cell growth. The series is classed as functional, cell-based.
The subject of the next series is NCI-H441. The series is described as follows: Antiproliferative activity against human NCI-H441 cells assessed as inhibition of cell growth measured after 48 hrs by MTS assay. Format: functional, cell-based. Conditions: NCI-H441, 48 h.
Series [16] relates to A549. Briefly: Antiproliferative activity against human A549 cells assessed as inhibition of cell growth measured after 48 hrs by MTS assay. Format: functional, cell-based. Conditions: A549, 48 h.
For series [17], the system named is MKN-45. Briefly: Antiproliferative activity against human MKN-45 cells assessed as inhibition of cell growth measured after 48 hrs by MTS assay. Format: functional, cell-based. Conditions: MKN-45, 48 h.
A further series relates to NCI-H460. Briefly: Antiproliferative activity against human NCI-H460 cells assessed as inhibition of cell growth measured after 48 hrs by MTS assay. The series is classed as functional, cell-based. To be noted: NCI-H460, 48 h.

Consider `C[C@@H](Oc1cc(C(=O)Nc2ccc(C(=O)N3CCN(C)CC3)cc2)nnc1N)c1c(Cl)ccc(F)c1Cl`, for which the IC50 in the series with MKN-45 [1] came out at 150 nM.

As to `Cc1[nH]c(/C=C2\C(=O)Nc3ccc(S(=O)(=O)N(C)c4cccc(Cl)c4)cc32)c(C)c1C(=O)N1CCN(C)CC1`, in series [2], the IC50 was 10 nM.

Turning to `COc1cc2c(Oc3ccc(-c4cnc(Nc5ccc(F)cc5)n(C)c4=O)nc3)ccnc2cc1OCCCN1CCOCC1`, the 50% inhibitory concentration (IC50) in the series on CT26 stood at 59 nM.

As for `COc1ccc2c(Oc3ccc(NC(=O)c4c(C)n(CC(C)(C)O)n(-c5ccccc5)c4=O)nc3)ccnc2c1`, it took 2 nM to reach half-maximal inhibition in [3] (IC50).

Regarding `[2H]c1ccc2cc(C(F)(F)c3nnc4ccc(-c5cnn(C)c5)nn34)ccc2n1`, the concentration for half-maximal inhibition (IC50) with MKN-45 [4] was 25 nM; with EBC-1 [5], 17 nM.

As to `Fc1ccc(Cl)c(C2(c3n[nH]c4ncc(-c5cnn(C6CCNCC6)c5)cc34)CC2)c1Cl`, the figures for the half-maximal inhibitory concentration (IC50) with EBC-1 [6] and in the series with MKN-45 [7] were 1190 nM and 670 nM, respectively.

Regarding `C[C@H]1CNC(=O)c2c(N)nn3ccc(nc23)NCc2c(ccc(F)c2C#N)O1`, half-maximal inhibition with MKN-45 [4] (IC50) required 297 nM.

Turning to `CCN1Cc2c(ccc(F)c2C#N)O[C@H](C)CNC(=O)c2c(N)nn3ccc1nc23`, the 50% inhibitory concentration (IC50) in the series on MKN-45 [4] is 251 nM.

In turn, `[2H]C([2H])[C@]([2H])(c1cccc(-c2ncc(OCC3CCN(C)CC3)cn2)c1)n1nc(-c2cccc(C#N)c2)ccc1=O` displayed a 50% inhibitory concentration (IC50) in the series with MHCC97H of 37 nM. For the same compound, in series [8], the bioavailability was found to be 104%.

On to `C[C@H](c1cccc(-c2ncc(OCC3CCN(C)CC3)cn2)c1)n1cc(-c2cc(C#N)ccn2)cc(F)c1=O`, for which the values for the half-life in series [9], in series [10] and in series [11] were 49.1 min, 62.1 min and 36.5 min, respectively. The IC50 in the series with MHCC97H turned out to be 8.8 nM.

For `[O-][S+](c1c(Cl)ccc(F)c1Cl)c1c[nH]c2ncc(-c3cnn(C4CCNCC4)c3)cc12` (centres undefined), the IC50 with EBC-1 [6] is 1590 nM; with MKN-45 [7] it was 1490 nM.

With `CC(C)(O)CN1CCC(COc2cnc(-c3cccc(Cn4c(=O)ccn5c6cc(C#N)ccc6nc45)c3)nc2)CC1`, the 50% inhibitory concentration (IC50) in the series with Hs746T [12] came out at 1.5 nM; in the series with EBC-1 [13], 4.81 nM. The bioavailability in series [8] came to 82.3%.

In the case of `CN1CCN(Cc2ccc(-c3cnc(N4CCOC(Cn5nnc6ncc(-c7cnn(C)c7)nc65)C4)nc3)cc2)CC1` (centres undefined), the concentration for half-maximal inhibition (IC50) in the series on SNU-5 worked out at 4.34 nM; in the series on MKN-45 [4], 3.18 nM; with EBC-1 [5], 2.22 nM; with Hs746T [14], 2 nM.

For the compound `CCOc1ccn(-c2ccc(F)cc2)c(=O)c1C(=O)Nc1ccc(Oc2ccnc(N)c2Cl)c(F)c1` [BMS-777607], the 50% inhibitory concentration (IC50) with GTL 16 cell line is 100 nM.

Take `CCN1Cc2c(ccc(F)c2C#N)O[C@@H](C)CNC(=O)c2c(N)nn3ccc1nc23` [ELZOVANTINIB]: the half-maximal inhibitory concentration (IC50) was determined as 0.17 nM in the series with SNU-5 and 0.2 nM in the series with MKN-45 [4].

In the case of `CN1CCN(C2CCN(C(=O)Nc3cc(Oc4ccc(NC(=O)C5(C(=O)Nc6ccc(F)cc6)CC5)c(F)c4)ccn3)CC2)CC1` [GOLVATINIB], the IC50 in the series on SNU-5 is 6.2 nM; with MKN-45 [4], 37 nM; with EBC-1 [5] it was 24 nM; in the series with Hs746T [14], 23 nM.

In the case of `Cn1cc(-c2ccc3nnc(C(F)(F)c4ccc5ncccc5c4)n3n2)cn1` [JNJ-38877605], the figures for the concentration for half-maximal inhibition (IC50) in the series on MKN-45 [4] and in the series on EBC-1 [5] were 18.6 nM and 8.4 nM, respectively.

As for `Cc1ccc(C(=O)Nc2ccc(Oc3cc4cnn(C)c4cc3-c3cn[nH]c3)c(F)c2)c(=O)n1-c1ccc(F)cc1` [MERESTINIB], the figures for the IC50 in the series on A549 [15], with NCI-H1703 and with NCI-H1993 were 628 nM, 72.9 nM and 9.28 nM, respectively.

As for `Cc1c(C(=O)Nc2ccc(Oc3ccnc4cc(OCC(C)(C)O)ccc34)c(F)c2)c(=O)n(-c2ccccc2)n1C` [NINGETINIB], the figures for the half-inhibitory concentration (IC50) in the series on SNU-5, with MKN-45 [4] and in the series with Hs746T [14] were 60 nM, 7 nM and 140 nM, respectively.

Turning to `O=C1NC(=O)[C@@H](c2cn3c4c(cccc24)CCC3)[C@@H]1c1c[nH]c2ccccc12` [TIVANTINIB], the IC50 with NCI-H441 is 300 nM; in the series on A549 [16] it was 590 nM; in the series with MKN-45 [17], 580 nM; in the series with NCI-H460 it was 600 nM.
